Test systems include HT29 colon; IGROV1 ovarian; MDA-N; MDA-MB-231 breast; PC-3 prostate; HOP-62 NSCLC; HS 578T breast; SK-MEL-28 melanoma; CAKI-1 renal; HL-60(TB) leukemia; OVCAR-4 ovarian; NCI-H460 lung; KM12 colon; OVCAR-3 ovarian; MDA-MB-435; U251 CNS; LOX IMVI melanoma; SNB-75 CNS; RXF 393 renal; K-562 leukemia.
Holding throughout (assay): NCI-60 cell line screen, 48 h

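Growth conditions: 96-well plates. Treatment: test compound, 48 hours, 5 concentrations. Analysis: linear interpolation between bracketing concentrations; unreached endpoints set to highest concentration. At the TGI there is no net growth.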 A value given as a limit tells only on which side of the number the result lay.

As for `O=[N+]([O-])/C=C/c1cn(CCCCCCCCCCCCn2cc(/C=C/[N+](=O)[O-])c3ccccc32)c2ccccc12`, the TGI with HT29 colon, in the experiment with IGROV1 ovarian, in the experiment on MDA-N, in the experiment with MDA-MB-231 breast, in the experiment with PC-3 prostate and in the experiment on HOP-62 NSCLC was > 100 µM throughout. Further, the TGI in the experiment with HS 578T breast, in the experiment with SK-MEL-28 melanoma, in the experiment on CAKI-1 renal, in the experiment with HL-60(TB) leukemia, in the experiment on OVCAR-4 ovarian and in the experiment on NCI-H460 lung was > 100 µM each time. In addition, the TGI in the experiment on KM12 colon, in the experiment with OVCAR-3 ovarian, in the experiment on MDA-MB-435, in the experiment with U251 CNS and in the experiment with LOX IMVI melanoma was > 100 µM throughout.
Regarding `C[C@H]1C[C@H]2[C@@H]3CCC4=CC(=O)C=C[C@]4(C)C3=CC[C@]2(C)[C@@]1(O)C(=O)CO`, the TGI with HT29 colon, in the experiment on IGROV1 ovarian, in the experiment on MDA-N, with SNB-75 CNS, with MDA-MB-231 breast and in the experiment with PC-3 prostate was > 100 µM each time. Besides, the TGI in the experiment on HOP-62 NSCLC, in the experiment with HS 578T breast, in the experiment with SK-MEL-28 melanoma, in the experiment on RXF 393 renal, in the experiment on CAKI-1 renal and in the experiment on HL-60(TB) leukemia was > 100 µM each time. The TGI with OVCAR-4 ovarian, in the experiment on NCI-H460 lung, with KM12 colon, with MDA-MB-435, in the experiment with U251 CNS and in the experiment with LOX IMVI melanoma was > 100 µM in each case. The TGI in the experiment on K-562 leukemia is > 100 µM.
`NC(=O)c1sc2nc3ccccc3n2c1N`: the TGI with HT29 colon is > 100 µM; in the experiment on IGROV1 ovarian it was > 100 µM; in the experiment on MDA-N, > 100 µM; with SNB-75 CNS, 79.1 µM; in the experiment on MDA-MB-231 breast, > 100 µM; in the experiment with PC-3 prostate, > 100 µM. The TGI in the experiment with HOP-62 NSCLC is > 100 µM; with HS 578T breast it was > 100 µM; in the experiment on SK-MEL-28 melanoma, > 100 µM; in the experiment on RXF 393 renal, 74.8 µM; in the experiment on CAKI-1 renal, > 100 µM; in the experiment on HL-60(TB) leukemia, > 100 µM. Also, the TGI was > 100 µM in the experiment on OVCAR-4 ovarian; > 100 µM with OVCAR-3 ovarian; > 100 µM with MDA-MB-435; 87.4 µM with U251 CNS; > 100 µM with LOX IMVI melanoma.
With `COc1cc(C(=O)O)c(-c2cc3c(cc2C=O)OCO3)c(OC)c1OC`, the TGI in the experiment on HT29 colon, in the experiment with IGROV1 ovarian, in the experiment with MDA-N, with SNB-75 CNS, in the experiment on MDA-MB-231 breast and in the experiment with PC-3 prostate was > 10 µM each time. Also, the TGI with HOP-62 NSCLC, in the experiment on HS 578T breast, in the experiment with SK-MEL-28 melanoma, with CAKI-1 renal, in the experiment on HL-60(TB) leukemia and in the experiment with OVCAR-4 ovarian was > 10 µM in each case. The TGI with KM12 colon, in the experiment on OVCAR-3 ovarian, in the experiment with MDA-MB-435, in the experiment on U251 CNS, in the experiment on LOX IMVI melanoma and with K-562 leukemia was > 10 µM each time.
Turning to `C/C(N)=N/OCc1nc(C)no1`, the TGI with HT29 colon, with MDA-N, in the experiment on SNB-75 CNS, in the experiment on MDA-MB-231 breast, in the experiment on PC-3 prostate and in the experiment on HOP-62 NSCLC was > 100 µM in each case. Moreover, the TGI with HS 578T breast, with SK-MEL-28 melanoma, in the experiment with RXF 393 renal, in the experiment on CAKI-1 renal, in the experiment with HL-60(TB) leukemia and in the experiment on OVCAR-4 ovarian was > 100 µM in each case. Further, the TGI in the experiment on NCI-H460 lung, in the experiment with KM12 colon, in the experiment on OVCAR-3 ovarian, with MDA-MB-435, in the experiment with U251 CNS and with K-562 leukemia was > 100 µM throughout.
As for `CNC(=O)CCCNC(=O)CCCC(=O)OC`, the TGI in the experiment on HT29 colon, in the experiment on IGROV1 ovarian, in the experiment with MDA-N, with SNB-75 CNS, in the experiment on MDA-MB-231 breast and in the experiment with PC-3 prostate was > 100 µM throughout. For the same compound, the TGI in the experiment with HOP-62 NSCLC, with HS 578T breast, in the experiment on SK-MEL-28 melanoma, in the experiment on CAKI-1 renal, in the experiment with HL-60(TB) leukemia and in the experiment on NCI-H460 lung was > 100 µM in each case. Besides, the TGI in the experiment with KM12 colon, in the experiment on OVCAR-3 ovarian, in the experiment with MDA-MB-435, in the experiment on U251 CNS, with LOX IMVI melanoma and in the experiment on K-562 leukemia was > 100 µM in each case.
In the case of `O=c1[nH]c2nc[nH]c2c(=O)n1C1CCCCC1`, the TGI with HT29 colon, in the experiment with IGROV1 ovarian, in the experiment with MDA-N, in the experiment on SNB-75 CNS, with MDA-MB-231 breast and in the experiment on PC-3 prostate was > 100 µM in each case. Further, the TGI with HOP-62 NSCLC, in the experiment with HS 578T breast, with SK-MEL-28 melanoma, in the experiment with RXF 393 renal, in the experiment with CAKI-1 renal and in the experiment with HL-60(TB) leukemia was > 100 µM in each case. Further, the TGI in the experiment with OVCAR-4 ovarian, in the experiment with NCI-H460 lung, in the experiment on KM12 colon, in the experiment on OVCAR-3 ovarian, with MDA-MB-435 and in the experiment on U251 CNS was > 100 µM each time. The TGI in the experiment on K-562 leukemia was > 100 µM.
Consider `COc1cccc(C(NC2=NCCC=N2)c2cc3c(cc2O)OCO3)c1O` (stereo not given), for which the TGI was > 100 µM with HT29 colon; > 100 µM with IGROV1 ovarian; > 100 µM with MDA-N; 93.8 µM with SNB-75 CNS; 59.9 µM with MDA-MB-231 breast; > 100 µM in the experiment with PC-3 prostate. Further, the TGI in the experiment with HOP-62 NSCLC is 55.5 µM; with HS 578T breast, 79.7 µM; in the experiment with SK-MEL-28 melanoma, > 100 µM; in the experiment on RXF 393 renal it was 63 µM; with CAKI-1 renal, > 100 µM; in the experiment on HL-60(TB) leukemia, 23.3 µM. Also, the TGI with NCI-H460 lung is > 100 µM; in the experiment on KM12 colon, > 100 µM; in the experiment on OVCAR-3 ovarian it was 59.7 µM; in the experiment with MDA-MB-435, 88.8 µM; with U251 CNS, 31.9 µM; in the experiment on LOX IMVI melanoma it was 41.2 µM. In the experiment with K-562 leukemia, this compound yielded a TGI of 40.6 µM.

For the origin of these results see PubChem BioAssay (NCI).
